From US20240043435A1, “TYK-2 INHIBITOR” (BEIGENE, LTD., priority 2020, published 2024)
Read-outs that look alike come from different tables or passages of the source.

Key:
[1] = system: pSTAT5/GM-CSF; experiment: pSTAT5/GM-CSF cellular assay (JAK2 selectivity); type: cell-based
[2] = target: T1, JAK1-JH2 protein (aa 561-860, in-house) (Homo sapiens, UniProt P23458); experiment: JAK1-JH2 biochemical assay (HTRF probe displacement); type: binding
T1 construct: JAK1-JH2 protein (aa 561-860, in-house); made in house
T1 sequence (P23458 561-860): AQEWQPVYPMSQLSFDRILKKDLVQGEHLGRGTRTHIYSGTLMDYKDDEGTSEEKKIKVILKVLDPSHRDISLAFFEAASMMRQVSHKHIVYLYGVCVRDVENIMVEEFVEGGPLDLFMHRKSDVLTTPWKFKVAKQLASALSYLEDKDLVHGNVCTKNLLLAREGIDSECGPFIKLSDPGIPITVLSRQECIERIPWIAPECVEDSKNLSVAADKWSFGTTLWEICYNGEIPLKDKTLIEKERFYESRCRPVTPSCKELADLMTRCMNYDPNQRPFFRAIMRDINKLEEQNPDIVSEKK
Protocol: Assay B: JAK1-JH2 Biochemical Assay
Compounds disclosed herein were tested for blocking of JAK1-JH2 protein (aa 561-860, in-house) with its probe in an assay based on Homogeneous Time Resolved Fluorescence. Compound dilution is done according to the following protocol: (1) Prepare 500× compounds solution in DMSO from 500 uM by 5-fold dilution, total 10 doses were included; (2) Prepare 10× compounds solution in an assay buffer containing 20 mM HEPES, pH 7.5, 10 mM MgCl2, 0.005% BSA, 2 mM DTT, 0.015% Brij-35 by transferring 1 μl serial 500× stock solution into 49 μl assay buffer. 4 μL of 1.17 nM recombinant JAK1-JH2 protein was pre-incubated with 1 μl of 10× serial dilution of compounds at room temperature for 0.5 hour. […] The HTRF signals (ex337 nm, em620 nm/665 nm) were read on BMG PHERAstar FS instrument. The inhibition percentage of JAK1 interaction with its probe in presence of increasing concentrations of compounds was calculated based on the ratio of fluorescence at 615 nm to that at 665 nm. The IC50 for each compound was derived from fitting the data to the four-parameter logistic equation by Dotmatics.

[3] = target: T2, TYK2-JH2 (aa 575-869, in-house) protein (Homo sapiens, UniProt P29597); experiment: TYK2-JH2 biochemical assay (HTRF probe displacement); type: binding; conditions: for Selectivity fold (TYK2/JAK1): JAK1-JH2 IC50 vs TYK2-JH2 IC50
T2 construct: TYK2-JH2 (aa 575-869, in-house) protein; made in house
T2 sequence (P29597 575-869): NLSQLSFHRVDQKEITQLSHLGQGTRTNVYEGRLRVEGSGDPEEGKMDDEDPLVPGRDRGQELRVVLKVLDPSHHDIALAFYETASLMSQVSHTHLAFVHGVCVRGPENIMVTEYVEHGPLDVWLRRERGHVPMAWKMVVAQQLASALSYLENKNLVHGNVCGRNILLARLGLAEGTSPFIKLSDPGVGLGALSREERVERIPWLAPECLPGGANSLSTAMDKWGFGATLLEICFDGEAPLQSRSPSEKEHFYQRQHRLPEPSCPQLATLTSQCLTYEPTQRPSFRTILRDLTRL
Procedure, shortened: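 HTRF probe-displacement format: compound dilutions (10 points, 5-fold, from 500 uM in DMSO at 500×) were combined with 0.2 nM TYK2-JH2 protein for 0.5 h at room temperature in HEPES pH 7.5 buffer with MgCl2, BSA, DTT and Brij-35. Percent inhibition came from the 615/665 nm fluorescence ratio, fitted to a four-parameter logistic for IC50.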

[4] = system: JAK2, TYK2/p-STAT4 (Tyr693) activated by IL-12 in NK-92 cell line; experiment: IL-12-JAK2, TYK2/p-STAT4 (Tyr693) inhibition IC50 cellular assay; type: cell-based; conditions: for Selectivity fold (TYK2/JAK2): Cellular assay, pSTAT5/GM-CSF IC50 vs pSTAT4/IL-12 IC50; for IC50: NK92, Cellular assay, read-out: pSTAT4/IL-12 IC50
Procedure, shortened: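 p-STAT4 (Tyr693) in lysates was measured by AlphaLISA SureFire Ultra after a 30 min IL-12 challenge (40 ng/ml final) at 37° C. Overnight-starved, IL-2-free NK-92 cells had been pretreated 1 h with compound at 10000 to 0.61 nM (4-fold, 8 points). IC50 values came from four-parameter logistic fitting.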

[5] = target: T1, JAK1-JH2 protein (aa 561-860, in-house); experiment: JAK1-JH2 biochemical assay (HTRF probe displacement); type: binding; conditions: in-house probe of the JAK1-JH2 assay
[6] = Mouse PK study, oral administration; type: in vivo, male CD-1 mouse
Protocol: Biological Assay: Mouse PK Study
The pharmacokinetics of compounds were evaluated in male CD-1 mouse via Oral Administration (dose of 10 mg/kg). For oral administration study, test compounds were added in 0.5% MC in water and administrated to mice at 10 mg/kg by gavage. Blood was collected into EDTA-K2 anticoagulant tube at 15, and 30 min and 1, 2, 4, 8 and 24 h after administration. Approximately 30 μL blood was collected at each time point. And then the blood was centrifuged at 2000 g for 5 min at 4° C. using a centrifuge to obtain the plasma. The plasma sample was transferred into a tube and stored in a freezer at approximately −70° C. until the determination of concentration by LC-MS/MS. Pharmacokinetic parameters were estimated by using WinNonlin software (version 8.1, Pharsight Corporation, CA, USA) with non-compartmental method. The following pharmacokinetic parameters were calculated, whenever possible from the plasma concentration-time data: Tmax, Cmax, AUClast, AUCinf, T1/2 for PO administration. All animals were fasted before experiment.

[7] = read-out: Tyk2 JH2 domain bio-chemical potency
[8] = Biochemical assay, read-out: TYK2-JH2 IC50
[9] = Po dosing (10 mg/kg), male CD-1 mouse
[10] = male, CD-1, plasma, Po 10 mg/kg mouse
[11] = plasma, Po dosing (10 mg/kg), male CD-1 mouse, read-out: Cmax

| Compound | IC50 [1] [nM] | IC50 [2] [nM] | Selectivity fold (TYK2/JAK1) ([3]; Biochemical assay) [fold] | Selectivity fold (TYK2/JAK2) [4] [fold] | IC50 [4] [nM] | IC50 [3, 8] [nM] | AUClast [6, 9] [µg·h/mL] | T1/2 [6, 9] [h] | AUC [6, 10] [µg·h/mL] | further results |
| --- | --- | --- | --- | --- | --- | --- | --- | --- | --- | --- |
| CC(=O)Nc1cc(Nc2cccc(S(C)(=O)=O)n2)c(-c2ccccn2)cn1 [Example B5, N-(4′-((6-(methylsulfonyl)pyridin-2-yl)amino)-[2,3′-bipyridin]-6′-yl)acetamide] | > 10000 | 0.31 | 19 | >41152 | 0.243 |  |  |  |  | fold more potent than Example B1 in bio-chemical assay [3]: 2 fold; IC50 [3, 7]: 0.016 nM; fold more potent than Example B1 in cellular assay [4]: 40 fold |
| CC(=O)Nc1cc(Nc2cccc(S(C)(=O)=O)c2)c(-c2cccnn2)cn1 [Example A1, N-(4-((3-(methylsulfonyl)phenyl)amino)-5-(pyridazin-3-yl)pyridin-2-yl)acetamide] | > 10000 | 15 | 288 | >125 | 79.5 | 0.052 |  |  |  |  |
| CN(C(=O)CN1CCN(CCNC(=O)CCOCCOCCOCCOCCOCCOCCNC(=O)CCCC[C@@H]2SC[C@@H]3NC(=O)N[C@@H]32)CC1)c1ccc(N/C(=C2\C(=O)Nc3ccccc32)c2ccccc2)cc1 [Probe 2, N-(2-(4-(2-(methyl(4-((((Z)-2-oxoindolin-3-ylidene)(phenyl)methyl)amino)phenyl)amino)-2-oxoethyl)piperazin-1-yl)ethyl)-1-(5-((3aS,4S,6aR)-2-oxohexahydro-1H-thieno[3,4-d]imidazol-4-yl)pentanamido)-3,6,9,12,15,18-hexaoxahenicosan-21-amide] |  |  |  |  |  |  |  |  |  | Kd [5]: 2.9 nM |
| COc1cc(Nc2cc(NC(C)=O)ncc2-c2ccc(C(C)(C)O)cn2)nc(S(C)(=O)=O)c1 [Example H11, N-(5-(2-hydroxypropan-2-yl)-4′-((4-methoxy-6-(methylsulfonyl)pyridin-2-yl)amino)-[2,3′-bipyridin]-6′-yl)acetamide] | > 10000 |  |  | >10000 | 1 | 0.027 | 0.0193 | 2.07 | 0.0194 | Cmax [6, 9]: 0.00873 µg/mL; Cmax ([6]; male, CD-1, plasma, Po 10 mg/kg mouse, read-out: Cmax): 0.007 µg/mL |
| CC(=O)Nc1cc(Nc2cccc(S(C)(=O)=O)c2)c(-c2cc(C)nc(C)n2)cn1 [Example A6, N-(5-(2,6-dimethylpyrimidin-4-yl)-4-((3-(methylsulfonyl)phenyl)amino)pyridin-2-yl)acetamide] | > 10000 | 18 | 128 | >196 | 51 | 0.14 |  |  |  |  |
| COc1cc(Nc2cc(NC(C)=O)ncc2-c2ccc3c(n2)OCC(C)(C)O3)nc(S(C)(=O)=O)c1 [Example Q25, N-(5-(2,2-dimethyl-2,3-dihydro-[1,4]dioxino[2,3-b]pyridin-6-yl)-4-((4-methoxy-6-(methylsulfonyl)pyridin-2-yl)amino)pyridin-2-yl)acetamide] | 1820 |  |  |  | 0.53 | 0.026 | 16.245 | 3.01 | 16.2 | Selectivity fold (TYK2/JAK2) ([1]; pSTAT5/GM-CSF IC50 over pSTAT4/IL-12 IC50): 3437 fold; AUC and Cmax fold higher than those of Example F22 and H11 ([6]; Po 10 mg/kg mouse): at least 3 fold; Cmax [6, 11]: 2.82 µg/mL |
| CC(=O)Nc1cc(Nc2cccc(S(C)(=O)=O)c2)c(-c2ccc(N3CCOCC3=O)cn2)cn1 [Example G1, N-(4′-((3-(methylsulfonyl)phenyl)amino)-5-(3-oxomorpholino)-[2,3′-bipyridin]-6′-yl)acetamide] | > 10000 | 4.9 |  |  | 14.4 | 0.026 |  |  |  | Selectivity fold (TYK2/JAK2) ([1]; pSTAT5/GM-CSF vs pSTAT4/IL-12): >694 fold; Selectivity fold (TYK2/JAK1) ([2]; JAK1-JH2 vs TYK2-JH2): 188 fold |
| COc1cc(Nc2cc(NC(C)=O)ncc2-c2ccc(F)cn2)nc(S(C)(=O)=O)c1 [Example F22, N-(5-fluoro-4′-((4-methoxy-6-(methylsulfonyl)pyridin-2-yl)amino)-[2,3′-bipyridin]-6′-yl)acetamide] | > 10000 |  |  | >5494 | 1.82 | 0.026 | 2.098 | 1.48 | 2.1 | Cmax [6, 11]: 0.911 µg/mL |
| CC(=O)Nc1cc(Nc2cccc(S(C)(=O)=O)c2)c(-c2ccccn2)cn1 [Example B1, N-(4′-((3-(methylsulfonyl)phenyl)amino)-[2,3′-bipyridin]-6′-yl)acetamide] | > 10000 | 7.4 | 194 | >1011 | 9.89 |  |  |  |  | IC50 [3, 7]: 0.038 nM |
